PubChem BioAssay AID248 (DTP/NCI, 2004)
“And” between values parts separate entries of the source, which are not always exact repeats. Equal values may be shown once. Inconclusive results and toxic doses are left out.

Tested on: L1210 leukemia ip in BDF1 mice, survival T/C
Assay: NCI In Vivo Anticancer Drug Screen. Data for tumor model L1210 Leukemia (intraperitoneal) in B6D2F1 (BDF1) mice
Details: endpoint: mean survival time, higher = longer survival
Method in brief: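 Transplantable tumor model; survival measured in treated vs vehicle control mice. Value = treated/control.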

[1] = dose: 50.0 mg/kg/injection, schedule: Q01DX001 (ip), vehicle: saline
[2] = dose: 100.0 mg/kg/injection, schedule: Q01DX001 (ip), vehicle: saline
[3] = dose: 200.0 mg/kg/injection, schedule: Q01DX001 (ip), vehicle: saline
[4] = dose: 400.0 mg/kg/injection, schedule: Q01DX001 (ip), vehicle: saline
[5] = dose: 50.0 mg/kg/injection, schedule: Q01DX001 (ip), vehicle: saline with Tween-80
[6] = dose: 100.0 mg/kg/injection, schedule: Q01DX001 (ip), vehicle: saline with Tween-80
[7] = dose: 200.0 mg/kg/injection, schedule: Q01DX001 (ip), vehicle: saline with Tween-80
[8] = dose: 100.0 mg/kg/injection, schedule: Q01DX009 (ip), vehicle: saline with Tween-80
[9] = dose: 200.0 mg/kg/injection, schedule: Q01DX009 (ip), vehicle: saline with Tween-80
[10] = dose: 400.0 mg/kg/injection, schedule: Q01DX009 (ip), vehicle: saline with Tween-80
[11] = dose: 100.0 mg/kg/injection, schedule: Q04DX003 (ip), vehicle: Klucel (hydroxypropylcellulose) (HPC)
[12] = dose: 200.0 mg/kg/injection, schedule: Q04DX003 (ip), vehicle: Klucel (hydroxypropylcellulose) (HPC)
[13] = dose: 400.0 mg/kg/injection, schedule: Q04DX003 (ip), vehicle: Klucel (hydroxypropylcellulose) (HPC)
[14] = dose: 12.5 mg/kg/injection, schedule: Q01DX009 (ip), vehicle: Klucel (hydroxypropylcellulose) (HPC)
[15] = dose: 25.0 mg/kg/injection, schedule: Q01DX009 (ip), vehicle: Klucel (hydroxypropylcellulose) (HPC)
[16] = dose: 50.0 mg/kg/injection, schedule: Q04DX002 (ip), vehicle: Klucel (hydroxypropylcellulose) (HPC)
[17] = dose: 100.0 mg/kg/injection, schedule: Q04DX002 (ip), vehicle: Klucel (hydroxypropylcellulose) (HPC)
[18] = dose: 100.0 mg/kg/injection, schedule: Q04DX003 (ip), vehicle: saline with Tween-80
[19] = dose: 200.0 mg/kg/injection, schedule: Q04DX003 (ip), vehicle: saline with Tween-80

CS(=O)(=O)OCCN(CCOS(C)(=O)=O)c1ccc([N+](=O)[O-])c(F)c1
T/C [1]: 110 % of control
T/C [2]: 112 % of control
T/C [3]: 115 % of control
T/C [4]: 105 % of control

O=C(O)c1ccccc1C(=O)OC1=CS(=O)(=O)CC1
T/C [5]: 97 % of control
T/C [6]: 101 % of control and 104 % of control
T/C [7]: 95 % of control and 123 % of control
T/C (dose: 400.0 mg/kg/injection, schedule: Q01DX001 (ip), vehicle: saline with Tween-80): 104 % of control and 105 % of control

O=C(c1ccccc1)c1cn(C2CCCCC2)c(-c2ccccc2)c1NC1CCCCC1
T/C [8]: 93 % of control
T/C [9]: 93 % of control
T/C [10]: 102 % of control

Cn1nc2c(N)ncnc2c1C1OC(CO)C(O)C1O (stereo not drawn)
T/C (dose: 100.0 mg/kg/injection, schedule: Q01DX005 (ip), vehicle: saline): 116 % of control
T/C (dose: 200.0 mg/kg/injection, schedule: Q01DX005 (ip), vehicle: saline): 106 % of control

N#Cc1c(/N=C/c2ccc3c(c2)CCC3)oc(-c2ccccc2)c1-c1ccccc1
T/C [11]: 103 % of control
T/C [12]: 97 % of control
T/C [13]: 94 % of control

O=C(OC(COC(c1ccccc1)(c1ccccc1)c1ccccc1)C(OC(=O)c1ccccc1)C(COC(c1ccccc1)(c1ccccc1)c1ccccc1)OC(=O)c1ccccc1)c1ccccc1 (stereo not drawn)
T/C [11]: 93 % of control
T/C [12]: 93 % of control
T/C [13]: 93 % of control

CNc1nc(NC)nc(NC)n1
T/C [14]: 102 % of control
T/C [15]: 102 % of control
T/C (dose: 50.0 mg/kg/injection, schedule: Q01DX009 (ip), vehicle: Klucel (hydroxypropylcellulose) (HPC)): 98 % of control
T/C (dose: 100.0 mg/kg/injection, schedule: Q01DX009 (ip), vehicle: Klucel (hydroxypropylcellulose) (HPC)): 98 % of control
T/C (dose: 200.0 mg/kg/injection, schedule: Q01DX009 (ip), vehicle: Klucel (hydroxypropylcellulose) (HPC)): 100 % of control

COCCc1nnn(C)n1
T/C (dose: 100.0 mg/kg/injection, schedule: Q04DX002 (ip), vehicle: saline): 97 % of control
T/C (dose: 200.0 mg/kg/injection, schedule: Q04DX002 (ip), vehicle: saline): 97 % of control
T/C (dose: 400.0 mg/kg/injection, schedule: Q04DX002 (ip), vehicle: saline): 108 % of control

[Cl][Hg][S]C1CCCC1
T/C (dose: 5.0 mg/kg/injection, schedule: Q01DX001 (ip), vehicle: saline): 106 % of control
T/C (dose: 10.0 mg/kg/injection, schedule: Q01DX001 (ip), vehicle: saline): 101 % of control
T/C (dose: 20.0 mg/kg/injection, schedule: Q01DX001 (ip), vehicle: saline): 101 % of control

CCCN(C)N=Nc1ccccc1C(=O)O
T/C [14]: 106 % of control and 113 % of control and 124 % of control
T/C (dose: 12.5 mg/kg/injection, schedule: Q04DX003 (ip), vehicle: Klucel (hydroxypropylcellulose) (HPC)): 105 % of control
T/C [15]: 114 % of control and 116 % of control
T/C (dose: 25.0 mg/kg/injection, schedule: Q04DX003 (ip), vehicle: Klucel (hydroxypropylcellulose) (HPC)): 118 % of control
T/C (dose: 50.0 mg/kg/injection, schedule: Q04DX003 (ip), vehicle: Klucel (hydroxypropylcellulose) (HPC)): 105 % of control
T/C (dose: 75.0 mg/kg/injection, schedule: Q01DX009 (ip), vehicle: Klucel (hydroxypropylcellulose) (HPC)): 87 % of control
T/C [11]: 113 % of control

ClC1=c2ccccc2=C2C(Cl)=c3ccccc3=C12
T/C [16]: 97 % of control
T/C [17]: 97 % of control

C1C2C3OC3C1C1C2C2C3CC(C4OC34)C12 (stereo not drawn)
T/C [8]: 94 % of control
T/C [18]: 100 % of control
T/C [9]: 94 % of control
T/C [19]: 101 % of control
T/C [10]: 94 % of control
T/C (dose: 400.0 mg/kg/injection, schedule: Q04DX003 (ip), vehicle: saline with Tween-80): 97 % of control

C1=Nc2cc3c(cc2Cn2cccc21)OCO3
T/C (dose: 25.0 mg/kg/injection, schedule: Q04DX002 (ip), vehicle: Klucel (hydroxypropylcellulose) (HPC)): 86 % of control
T/C [16]: 94 % of control
T/C [17]: 94 % of control

N#CNS(=O)(=O)c1ccccc1
T/C [2]: 98 % of control
T/C [3]: 92 % of control
T/C [4]: 98 % of control

CNC(=O)Oc1ccc(C2CCCCC2)cc1
T/C (dose: 100.0 mg/kg/injection, schedule: Q01DX001 (ip), vehicle: carboxymethylcellulose (CMC)): 99 % of control
T/C (dose: 100.0 mg/kg/injection, schedule: Q01DX009 (ip), vehicle: carboxymethylcellulose (CMC)): 93 % of control and 103 % of control
T/C [17]: 97 % of control
T/C (dose: 100.0 mg/kg/injection, schedule: Q04DX002 (ip), vehicle: carboxymethylcellulose (CMC)): 95 % of control and 101 % of control
T/C (dose: 100.0 mg/kg/injection, schedule: Q04DX003 (ip), vehicle: carboxymethylcellulose (CMC)): 94 % of control
T/C (dose: 200.0 mg/kg/injection, schedule: Q01DX001 (ip), vehicle: carboxymethylcellulose (CMC)): 90 % of control
T/C (dose: 200.0 mg/kg/injection, schedule: Q01DX009 (ip), vehicle: carboxymethylcellulose (CMC)): 93 % of control and 95 % of control
T/C (dose: 200.0 mg/kg/injection, schedule: Q04DX002 (ip), vehicle: Klucel (hydroxypropylcellulose) (HPC)): 97 % of control
T/C (dose: 200.0 mg/kg/injection, schedule: Q04DX002 (ip), vehicle: carboxymethylcellulose (CMC)): 101 % of control and 108 % of control
T/C (dose: 200.0 mg/kg/injection, schedule: Q04DX003 (ip), vehicle: carboxymethylcellulose (CMC)): 94 % of control
T/C (dose: 400.0 mg/kg/injection, schedule: Q01DX001 (ip), vehicle: carboxymethylcellulose (CMC)): 92 % of control
T/C (dose: 400.0 mg/kg/injection, schedule: Q01DX009 (ip), vehicle: carboxymethylcellulose (CMC)): 98 % of control and 100 % of control
T/C (dose: 400.0 mg/kg/injection, schedule: Q04DX002 (ip), vehicle: Klucel (hydroxypropylcellulose) (HPC)): 100 % of control
T/C (dose: 400.0 mg/kg/injection, schedule: Q04DX002 (ip), vehicle: carboxymethylcellulose (CMC)): 95 % of control and 101 % of control
T/C (dose: 400.0 mg/kg/injection, schedule: Q04DX003 (ip), vehicle: carboxymethylcellulose (CMC)): 100 % of control

COc1cccc(C(=O)c2cc(O)c3c(c2O)CC(C(C)=O)CC3=O)c1C#N (stereo not drawn)
T/C [5]: 100 % of control
T/C [6]: 94 % of control
T/C [7]: 98 % of control

COc1cccc(C(C)(C)CC(=O)O)c1
T/C (dose: 50.0 mg/kg/injection, schedule: Q01DX009 (ip), vehicle: saline with Tween-80): 90 % of control
T/C [8]: 90 % of control
T/C [9]: 87 % of control

O=NN(CCCl)C(=O)NC1CCCC1
T/C (dose: 3.0 mg/kg/injection, schedule: Q01DX001 (ip), vehicle: saline): 108 % of control
T/C (dose: 6.0 mg/kg/injection, schedule: Q01DX001 (ip), vehicle: saline): 108 % of control
T/C (dose: 12.0 mg/kg/injection, schedule: Q01DX001 (ip), vehicle: saline): 112 % of control
T/C (dose: 18.0 mg/kg/injection, schedule: Q01DX001 (ip), vehicle: saline): 118 % of control
T/C (dose: 25.0 mg/kg/injection, schedule: Q01DX001 (ip), vehicle: saline): 162 % of control
T/C (dose: 30.0 mg/kg/injection, schedule: Q01DX001 (ip), vehicle: saline): 222 % of control
T/C (dose: 44.0 mg/kg/injection, schedule: Q01DX001 (ip), vehicle: saline): 302 % of control
T/C [1]: 328 % of control
T/C (dose: 67.0 mg/kg/injection, schedule: Q01DX001 (ip), vehicle: saline): 278 % of control
T/C (dose: 93.0 mg/kg/injection, schedule: Q01DX001 (ip), vehicle: saline): 243 % of control
T/C [2]: 224 % of control and 333 % of control
T/C (dose: 150.0 mg/kg/injection, schedule: Q01DX001 (ip), vehicle: saline): 295 % of control
T/C (dose: 187.0 mg/kg/injection, schedule: Q01DX001 (ip), vehicle: saline): 197 % of control
T/C (dose: 375.0 mg/kg/injection, schedule: Q01DX001 (ip), vehicle: saline): 283 % of control
T/C (dose: 500.0 mg/kg/injection, schedule: Q01DX001 (ip), vehicle: saline): 327 % of control

CC1(C)CCC(C)(C)c2c1ccc(O)c2Cc1c(O)ccc2c1C(C)(C)CCC2(C)C
T/C [11]: 96 % of control
T/C [3]: 87 % of control
T/C [12]: 96 % of control
T/C [13]: 94 % of control

COC(=O)c1ccccc1NC(=O)CCl
T/C [18]: 99 % of control
T/C [19]: 91 % of control
